Several values for one entry are separate records, joined by “and”; a condition that tells them apart may be missing. Equal entries are not always repeated.
Biological target: T1, Chymotrypsin-like elastase family member 2A (Sus scrofa) (UniProt P08419)
T1 sequence (whole entry): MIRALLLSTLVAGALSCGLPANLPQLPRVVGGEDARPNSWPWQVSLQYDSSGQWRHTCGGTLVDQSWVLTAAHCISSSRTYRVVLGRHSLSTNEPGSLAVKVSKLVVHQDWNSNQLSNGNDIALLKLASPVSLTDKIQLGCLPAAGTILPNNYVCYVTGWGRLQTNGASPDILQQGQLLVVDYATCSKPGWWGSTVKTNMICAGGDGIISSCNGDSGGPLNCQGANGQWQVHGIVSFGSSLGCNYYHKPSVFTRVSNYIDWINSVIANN
Test: Compound was tested in vitro for its ability to inhibit Pancreatic elastase catalyzed hydrolysis of substrate with 10 min pre-incubation

inhibition: 44% and 40%
SMILES: COC(=O)[C@@H]1N2C(=O)[C@@H](Cl)[C@H]2S(=O)(=O)C1(C)C
